Test results taken from patent publication US20080096967A1, “Formulations for Injection of Catecholic Butanes, Including Ndga Compounds, Into Animals” (priority 2005, published 2008).

Test system: HeLa, an HPV-18 positive human cervical cancer cell line
Assay: Cell proliferation and cell death, trypan blue exclusion, HeLa cells
Type: cell-based
Method: M4N in 10% (w/v) HP-β-CD and 25% (v/v) PEG 300 (hereafter, the “CPE formulation”), M4N in 30% (w/v) HP-β-CD and 25% (v/v) PEG 300 (hereafter, the “CPE 25/30 formulation”) and M4N in 27% (w/v) HP-β-CD and 33% (v/v) PEG 300 (hereafter, the “CPE 33/27 formulation”) was tested for their effects on cell death and proliferation on two different tumor cell lines: HeLa, an HPV-18 positive human cervical cancer cell line, and C-33A, an HPV-negative human cervical cancer cell line M4N in DMSO was also tested in parallel. Both tumor cell lines were treated with increasing amounts of M4N: 0 μM, 20 μM, 40 μM, 60 μM and 80 μM, for 72 hr with the DMSO or the CPE formulation. Each formulation was added to total 1% of the growth media (Minimal Essential Medium with L-glutamine supplemented with 10% fetal bovine serum, 1 mM sodium pyruvate, 1× non-essential amino acid solution, and 1,000 IU/mL penicillin/1,000 μg/mL streptomycin solution). Control cells were grown under the same conditions and were left untreated. After 72 hr of treatment or no treatment, the total number of cells and the number of live cells in each sample were counted, using the trypan blue exclusion method. The cell proliferation rate and the percentage of dead cells in each sample were analyzed. Results of this experiment are shown in FIG. 1, FIG. 2, and Tables 6 through 12.
FIG. 1 is a graphical representation of the ratio of the number of treated cells/number of untreated cells plotted against increasing concentrations of M4N in either the DMSO formulation or the CPE formulation for treatment of the C-33A cells and HeLa cells. FIG. 2 is a graphical representation of the percentage of dead cells plotted against increasing concentrations of M4N and in either DMSO formulation or the CPE formulation for treatment of the two cancer cell lines, C-33A and HeLa cells in culture.
Various lots of M4N were tested to show the effectiveness of the drug of different lots. HeLa cells were treated with increasing amounts of M4N: 0 μM, 20 μM, 40 μM, 60 μM and 80 μM, for 72 hr with the CPE formulation. Each formulation was added to total 1% of the growth media (Minimal Essential Medium with L-glutamine supplemented with 10% fetal bovine serum, 1 mM sodium pyruvate, 1× non-essential amino acid solution, and 1,000 IU/mL penicillin/1,000 μg/mL streptomycin solution). Control cells were grown under the same conditions and were left untreated. After 72 hr of treatment or no treatment, the total number of cells and the number of live cells in each sample were counted, using the trypan blue exclusion method. The cell proliferation rate and the percentage of dead cells in each sample were analyzed.

[1] = M4N 20 μM in CPE 25/30 formulation, 72 hr
[2] = M4N 20 μM in CPE 25/30 formulation, 72 hr, at 3 months
[3] = M4N 20 μM in CPE 33/27 formulation, 72 hr, time zero
[4] = M4N 20 μM in CPE formulation, 72 hr, at 3 months
[5] = M4N 20 μM in CPE formulation, 72 hr, at 9 months
[6] = M4N 20 μM in CPE formulation, 72 hr, at 12 months
[7] = M4N 20 μM in CPE formulation, 72 hr, comparison with CPE 25/30
[8] = M4N 20 μM in CPE formulation, 72 hr, time 0
[9] = M4N 20 μM in CPE formulation, 72 hr, time zero, comparison with CPE 33/27
[10] = M4N 20 μM in DMSO, 72 hr, at 9 months
[11] = M4N 20 μM in DMSO, 72 hr, at 12 months
[12] = M4N 20 μM in DMSO, 72 hr, time 0
[13] = M4N 40 μM in CPE 25/30 formulation, 72 hr
[14] = M4N 40 μM in CPE 25/30 formulation, 72 hr, at 3 months
[15] = M4N 40 μM in CPE 33/27 formulation, 72 hr, time zero
[16] = M4N 40 μM in CPE formulation, 72 hr, at 3 months
[17] = M4N 40 μM in CPE formulation, 72 hr, at 9 months
[18] = M4N 40 μM in CPE formulation, 72 hr, at 12 months
[19] = M4N 40 μM in CPE formulation, 72 hr, comparison with CPE 25/30
[20] = M4N 40 μM in CPE formulation, 72 hr, time 0
[21] = M4N 40 μM in CPE formulation, 72 hr, time zero, comparison with CPE 33/27
[22] = M4N 40 μM in DMSO, 72 hr, at 9 months
[23] = M4N 40 μM in DMSO, 72 hr, at 12 months
[24] = M4N 40 μM in DMSO, 72 hr, time 0
[25] = M4N 60 μM in CPE 25/30 formulation, 72 hr
[26] = M4N 60 μM in CPE 25/30 formulation, 72 hr, at 3 months
[27] = M4N 60 μM in CPE 33/27 formulation, 72 hr, time zero
[28] = M4N 60 μM in CPE formulation, 72 hr, at 3 months

Compound: COc1ccc(C[C@@H](C)[C@@H](C)Cc2ccc(OC)c(OC)c2)cc1OC [Formulation M4N, meso-1,4-bis(3,4-dimethoxyphenyl)-2,3-dimethylbutane]
- cell death, share of the cell population (80 μM or […] M4N in CPE formulation): about 20%
- cell death, share of the cell population (80 μM or […] M4N in DMSO formulation): about 40%
- M4N sufficient to cause about a 50% inhibition in cell proliferation (CPE formulation, 72 hr): ~7.2 µg/mL
- effectiveness of the drug of different lots (CPE formulation, lots EM1001 and EM1002): remains the same
- % Dead Cells [1]: 9.4%
- % Viability [1]: 90.7%
- Proliferation Rate [1]: 0.34
- % Dead Cells [2]: 11.9%
- % Viability [2]: 88.1%
- Proliferation Rate [2]: 0.39
- % Dead Cells [3]: 10.9%
- % Viability [3]: 89.2%
- Proliferation Rate [3]: 0.43
- % Dead Cells [4]: 9.0%
- % Viability [4]: 91.0%
- Proliferation Rate [4]: 0.39
- % Dead Cells [5]: 31.3%
- % Viability [5]: 68.7%
- Proliferation Rate [5]: 0.24
- % Dead Cells [6]: 3.3%
- % Viability [6]: 96.8%
- Proliferation Rate [6]: 0.74
- % Dead Cells [7]: 6.6%
- % Viability [7]: 93.5%
- Proliferation Rate [7]: 0.33
- % Dead Cells [8]: 4.4%
- % Viability [8]: 95.6%
- Proliferation Rate [8]: 0.52
- % Dead Cells [9]: 11.9%
- % Viability [9]: 88.1%
- Proliferation Rate [9]: 0.35
- % Dead Cells [10]: 10.7%
- % Viability [10]: 89.3%
- Proliferation Rate [10]: 0.19
- % Dead Cells [11]: 12.6%
- % Viability [11]: 87.4%
- Proliferation Rate [11]: 0.23
- % Dead Cells [12]: 9.9%
- % Viability [12]: 90.1%
- Proliferation Rate [12]: 0.25
- % Dead Cells [13]: 11.0%
- % Viability [13]: 89.1%
- Proliferation Rate [13]: 0.31
- % Dead Cells [14]: 13.4%
- % Viability [14]: 86.6%
- Proliferation Rate [14]: 0.32
- % Dead Cells [15]: 13.6%
- % Viability [15]: 86.4%
- Proliferation Rate [15]: 0.19
- % Dead Cells [16]: 16.5%
- % Viability [16]: 83.5%
- Proliferation Rate [16]: 0.09
- % Dead Cells [17]: 27.2%
- % Viability [17]: 72.8%
- Proliferation Rate [17]: 0.10
- % Dead Cells [18]: 5.0%
- % Viability [18]: 95.0%
- Proliferation Rate [18]: 0.21
- % Dead Cells [19]: 23.4%
- % Viability [19]: 76.7%
- Proliferation Rate [19]: 0.08
- % Dead Cells [20]: 9.4%
- % Viability [20]: 90.6%
- Proliferation Rate [20]: 0.28
- % Dead Cells [21]: 25.9%
- % Viability [21]: 74.2%
- Proliferation Rate [21]: 0.14
- % Dead Cells [22]: 8.8%
- % Viability [22]: 91.2%
- Proliferation Rate [22]: 0.14
- % Dead Cells [23]: 13.7%
- % Viability [23]: 86.4%
- Proliferation Rate [23]: 0.04
- % Dead Cells [24]: 13.2%
- % Viability [24]: 86.8%
- Proliferation Rate [24]: 0.25
- % Dead Cells [25]: 22.8%
- % Viability [25]: 77.3%
- Proliferation Rate [25]: 0.12
- % Dead Cells [26]: 23.1%
- % Viability [26]: 76.9%
- Proliferation Rate [26]: 0.11
- % Dead Cells [27]: 29.3%
- % Viability [27]: 70.7%
- Proliferation Rate [27]: 0.10
- % Dead Cells [28]: 43.1%
- % Viability [28]: 56.9%
